Results taken from publication PMC2758719 (Molecular Systems Biology, 2009).

Molecular target: T1, PfkA (Escherichia coli, UniProt P0A796)
T1 sequence (P0A796 1-320): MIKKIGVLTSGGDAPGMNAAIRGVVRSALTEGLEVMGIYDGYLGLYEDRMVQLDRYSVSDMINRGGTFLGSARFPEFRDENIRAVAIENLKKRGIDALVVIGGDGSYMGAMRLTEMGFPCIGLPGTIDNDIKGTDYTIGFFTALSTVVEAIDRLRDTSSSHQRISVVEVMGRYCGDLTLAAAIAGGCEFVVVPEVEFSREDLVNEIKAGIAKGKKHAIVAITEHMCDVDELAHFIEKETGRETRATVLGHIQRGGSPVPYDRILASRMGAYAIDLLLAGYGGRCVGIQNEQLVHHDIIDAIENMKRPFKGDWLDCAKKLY
Experiment: CE-MS quantification of metabolites after incubation
Format: biochemical
Conditions: 5 mM S7P, 2 mM ATP, 2 uM enzyme, 50 mM MOPS potassium buffer, 37 °C, 1 h

O=P(O)(O)OC[C@@H](O)[C@H]1OC(O)(CO)[C@@H](O)[C@@H]1O (stereo partly shown) [S7P]
CE-MS quantification of metabolites after incubation: When S7P and ATP were incubated with PfkA, S7P and ATP were consumed
